Literature values as cited in paper PMC4198065 (ACS Chemical Neuroscience, 2014).

Legend:
food intake in mice = conditions: effect lasting up to 24 h
[1] = system: food consumption and body weight in rats; conditions: ICV

For “AGRP: endogenous antagonist of the MC3R and MC4R (SSRRCVRLHESCLGQQVPCCDPCATCYCRFFNAFCYCRKLGTAMNPCSRT; UniProt O00253 83-132, looked up)”, the “food intake after central administration” value (food intake in mice) is listed as “robustly increased food intake”.
In the case of “Ac-Nle-c[Asp-His-DPhe-Arg-Trp-Lys]-NH2 (sidechain bridge or staple) [MTII]”, the “48 h food consumption” value ([1]; 1.0 nmol dose) is listed as “reduced 48 h food consumption” and the “body weight post treatment” value ([1]; at 24 and 48 h (0.1 and 1.0 nmol doses, respectively)) is listed as “reduced body weight at 24 and 48 h”.
In the case of “Ac-RRWWRF-NH2 [AST789-13, Ac-RRWWRF-NH2]”, the “half-life in human serum” value is given as 1.5 h.
